From patent US8415376B2, “Inhibitors of PI3 kinase” (Amgen Inc., priority 2008, dated 2013) come the findings set out here.

For one experiment, the target named is T1, PI3Kβ (Homo sapiens, UniProt P42338).
T1 construct: Full length p110 subunits of PI3K α, β and δ, N-terminally labeled with polyHis tag; polyHis (N); made in house; host or cells: Sf9 insect cells (baculovirus)
Description: In vitro PI3 kinase enzyme assay (PI3K ATP loss), beta. The format is biochemical. The note with it: average if run more than once.

Another experiment addresses T2, PI3Kα (Homo sapiens, UniProt P42336).
T2 construct: Full length p110 subunits of PI3K α, β and δ, N-terminally labeled with polyHis tag; polyHis (N); made in house; host or cells: Sf9 insect cells (baculovirus)
Description: In vitro PI3 kinase enzyme assay (PI3K ATP loss), alpha. Format: biochemical. Conditions: average if run more than once; read-out: ATP Loss (PBKα) IC50 μM (Avg).

In experiment [1] the test system is phosphorylation of Akt at Ser473. Description: Cell-based phospho-Akt Ser473 assay (HCT116 cell). Conditions: HCT 116 human colon carcinoma cells, IGF-1 stimulated; average. The text has this: Cell-Based Phospho-Akt Ser473 Assay (HCT116 Cell)
This assay determines the ability of a compound to inhibit the phosphorylation of […] in Akt using a MSD based sandwich immunoassay (Meso Scale Detection, Meso Scale Discovery (MSD), Gaithersburg, Md.). HCT 116 human colon carcinoma cell lines can be grown in McCoy's 5A growth medium (GIBCO, Carlsbad, Calif.) containing 10% FBS (GIBCO, Carlsbad, Calif.) and X1 Penicillin-streptomycin-glutamine (GIBCO, Carlsbad, Calif.). Prior to the assay, cells can be detached from the culture flask with trypsin, and re-suspended in complete media to give a final concentration of 1.6×10^5 cells per mL. Aliquots (100 μl) of the HCT116 cell suspension can be seeded into each well of a 96 well tissue culture plate to give a final density of 16,000 cells per well. Cells can then be incubated overnight at 37° C.
The following day the cells can be treated with serially diluted test compounds and incubated for 2 hours at 37° C. The culture media on the HCT 116 cells can be replaced with 189 μL McCoys media, supplemented with 0.1% BSA (ICN Biomedicals, Inc., Costa Mesa, Calif.). Compounds can be prepared as either 10 mM or 0.5 mM stock solutions in DMSO, and serially diluted 3 fold in a 10-point dose-response curve to give final concentrations that are 200-fold greater than the desired final test concentration. Aliquots (1 μL) of serially-diluted compounds can be transferred to 96 well tissue culture plates containing the HCT 116 cells. […] As a maximum response control, wells can contain 0.5% DMSO in place of compound. The plates can be mixed at 700 rpm for 2 min to ensure even distribution of the test compound and incubated for 2 hours at 37° C. Cells can then be stimulated with insulin-like growth factor 1 (Sigma, St Louis, Mo.) at final concentration of 100 ng/ml for 15 minutes at 37° C. The media can then be removed and the cells treated with 80 μL cell-lysis buffer (MSD) containing a cocktail of protease and phosphatase inhibitors for one hour at 4° C.
25 μL Cell lysate can then be transferred to pre-blocked MSD assay plates pre-coated with a capture antibody specific for Akt, and the plates can be incubated for 2 hours at room temperature. The cell lysates can then be removed and plates can then be washed four times with 200 μl per well of Tris wash buffer (500 mM Tris, PH 7.5, 1.5 M NaCl, 0.2% Tween-20). Subsequently cells can be incubated for 1 hour at room temperature with a 25 μL solution containing the detection antibody, anti-phospho Akt (Ser 473) labeled with an electrochemiluminescent compound (Meso Scale Discovery SULPHO-TAG™ label, MSD, Gaithersburg, Md.). The detection antibody can be removed and plates can then be washed four times with 200 μL per well of Tris wash buffer. An aliquot of 150 μL of diluted MSD read buffer can then be applied to each well, and the electrochemiluminescent signal can be measured using a MSD SECTOR™ plate reader (Meso Scale Discovery, Gaithersburg, Md.). This instrument measures the intensity of emitted light to determine a quantitative measure of phosphorylated Akt in each well. The dose-response data obtained with each compound can be analyzed and the IC50 inhibition of Akt phosphorylation at Ser473 can be calculated.
Activity data for the compounds tested in the PI3K cell based Akt assay is provided in Table 1 under the column heading HCT116 Cell.

T2 sequence (P42336 whole entry): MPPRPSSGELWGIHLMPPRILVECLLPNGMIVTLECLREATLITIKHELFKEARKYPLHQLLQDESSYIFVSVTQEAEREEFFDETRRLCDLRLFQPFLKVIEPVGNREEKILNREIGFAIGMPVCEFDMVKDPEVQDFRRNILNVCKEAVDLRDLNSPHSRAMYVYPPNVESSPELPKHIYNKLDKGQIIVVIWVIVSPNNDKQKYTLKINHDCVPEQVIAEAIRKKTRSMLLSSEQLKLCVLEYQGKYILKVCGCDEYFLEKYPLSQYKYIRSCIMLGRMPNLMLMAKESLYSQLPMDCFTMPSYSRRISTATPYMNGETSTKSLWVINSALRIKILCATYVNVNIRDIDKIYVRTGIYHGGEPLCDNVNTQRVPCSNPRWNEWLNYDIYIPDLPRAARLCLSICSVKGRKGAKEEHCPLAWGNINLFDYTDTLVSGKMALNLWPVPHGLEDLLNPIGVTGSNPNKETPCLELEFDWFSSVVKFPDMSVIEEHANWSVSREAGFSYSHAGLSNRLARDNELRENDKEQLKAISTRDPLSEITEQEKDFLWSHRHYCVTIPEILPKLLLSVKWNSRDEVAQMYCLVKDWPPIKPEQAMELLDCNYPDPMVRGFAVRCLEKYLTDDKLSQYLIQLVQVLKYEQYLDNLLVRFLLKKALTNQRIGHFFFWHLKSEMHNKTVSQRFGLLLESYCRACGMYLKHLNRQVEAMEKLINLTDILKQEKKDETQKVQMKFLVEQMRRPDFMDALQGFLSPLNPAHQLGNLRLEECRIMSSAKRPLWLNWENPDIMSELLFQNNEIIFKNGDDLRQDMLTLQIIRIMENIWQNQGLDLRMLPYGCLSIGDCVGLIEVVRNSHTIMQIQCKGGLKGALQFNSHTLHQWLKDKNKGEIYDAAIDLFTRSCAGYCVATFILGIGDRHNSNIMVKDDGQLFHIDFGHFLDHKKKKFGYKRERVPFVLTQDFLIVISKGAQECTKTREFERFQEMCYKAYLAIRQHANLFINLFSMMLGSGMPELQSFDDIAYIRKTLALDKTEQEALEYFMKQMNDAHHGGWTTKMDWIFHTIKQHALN
T2 sequence (P27986 whole entry partner): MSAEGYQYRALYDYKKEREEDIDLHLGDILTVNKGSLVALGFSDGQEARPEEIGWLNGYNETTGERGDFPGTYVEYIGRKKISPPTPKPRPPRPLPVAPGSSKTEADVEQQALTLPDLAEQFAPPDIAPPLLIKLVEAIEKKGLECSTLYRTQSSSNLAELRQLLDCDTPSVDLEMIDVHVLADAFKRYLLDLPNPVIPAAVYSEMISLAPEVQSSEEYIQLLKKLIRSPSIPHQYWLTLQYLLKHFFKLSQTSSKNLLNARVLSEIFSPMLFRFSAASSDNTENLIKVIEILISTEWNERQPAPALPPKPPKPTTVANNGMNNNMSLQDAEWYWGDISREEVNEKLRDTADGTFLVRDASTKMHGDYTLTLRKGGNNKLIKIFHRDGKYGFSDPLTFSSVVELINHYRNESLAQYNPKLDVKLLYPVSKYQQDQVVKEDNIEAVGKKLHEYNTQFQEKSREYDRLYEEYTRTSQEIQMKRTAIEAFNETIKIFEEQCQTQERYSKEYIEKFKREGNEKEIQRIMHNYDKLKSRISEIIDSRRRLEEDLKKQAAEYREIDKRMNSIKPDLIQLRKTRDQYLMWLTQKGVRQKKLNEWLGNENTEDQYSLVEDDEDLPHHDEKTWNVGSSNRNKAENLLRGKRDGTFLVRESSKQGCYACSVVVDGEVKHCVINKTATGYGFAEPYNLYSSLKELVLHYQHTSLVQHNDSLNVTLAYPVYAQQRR
T1 sequence (P42338 whole entry): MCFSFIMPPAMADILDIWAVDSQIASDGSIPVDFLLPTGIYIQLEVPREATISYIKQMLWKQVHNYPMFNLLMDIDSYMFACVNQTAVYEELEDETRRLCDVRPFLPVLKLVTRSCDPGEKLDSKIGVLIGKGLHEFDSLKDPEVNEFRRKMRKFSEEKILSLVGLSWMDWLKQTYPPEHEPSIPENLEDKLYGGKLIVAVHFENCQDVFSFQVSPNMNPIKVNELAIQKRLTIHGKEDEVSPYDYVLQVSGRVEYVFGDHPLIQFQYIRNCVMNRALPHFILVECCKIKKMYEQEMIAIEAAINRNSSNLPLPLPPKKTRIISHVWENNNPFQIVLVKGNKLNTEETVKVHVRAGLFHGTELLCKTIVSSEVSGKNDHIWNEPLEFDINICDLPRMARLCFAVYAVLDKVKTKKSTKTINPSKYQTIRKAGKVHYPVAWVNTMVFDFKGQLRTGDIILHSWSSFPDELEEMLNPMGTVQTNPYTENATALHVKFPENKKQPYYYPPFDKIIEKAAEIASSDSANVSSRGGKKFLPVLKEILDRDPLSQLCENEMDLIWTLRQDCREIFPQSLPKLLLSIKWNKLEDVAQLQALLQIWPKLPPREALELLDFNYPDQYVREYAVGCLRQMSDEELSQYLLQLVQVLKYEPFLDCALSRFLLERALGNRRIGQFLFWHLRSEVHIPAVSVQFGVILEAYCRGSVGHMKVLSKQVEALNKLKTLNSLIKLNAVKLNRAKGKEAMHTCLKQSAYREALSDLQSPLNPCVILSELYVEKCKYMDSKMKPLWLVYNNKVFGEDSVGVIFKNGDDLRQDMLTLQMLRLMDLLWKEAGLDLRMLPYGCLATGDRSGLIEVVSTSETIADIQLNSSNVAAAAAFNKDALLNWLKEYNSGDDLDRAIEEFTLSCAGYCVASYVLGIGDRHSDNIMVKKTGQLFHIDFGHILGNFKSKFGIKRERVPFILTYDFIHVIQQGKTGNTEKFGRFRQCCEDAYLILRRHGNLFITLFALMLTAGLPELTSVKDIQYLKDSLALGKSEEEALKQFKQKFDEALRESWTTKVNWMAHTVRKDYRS
T1 sequence (P27986 whole entry partner): as the sequence (P27986 whole entry partner) above
Description for PI3Kα: (§1) Full length p110 subunits of PI3K α, β and δ, N-terminally labeled with polyHis tag, can be co-expressed with p85 with Baculo virus expression vectors in sf9 insect cells. P110/p85 heterodimers can be purified by sequential Ni-NTA, Q-HP, Superdex-100 chromatography. Purified α, β and δ isozymes can be stored at −20° C. in 20 mM Tris, pH 8, 0.2M NaCl, 50% glycerol, 5 mM DTT, 2 mM Na cholate. […] The γ isozyme can be purified by sequential Ni-NTA, Superdex-200, Q-HP chromatography. The γ isozyme can be stored frozen at −80° C. in NaH2PO4, pH 8, 0.2M NaCl, 1% ethylene glycol, 2 mM β-mercaptoethanol.
(§2) In Vitro PI3 Kinase Enzyme Assays (PI3K Atploss)
(§3) PI3K enzyme assays (alpha, beta, delta and gamma) can be performed in 25 μL with the above final concentrations of components in white polyproplyene plates. Phosphatidyl inositol phosphoacceptor, PtdIns(4,5)P2 (eg. P4508) can be obtained from Echelon Biosciences, Salt Lake City, Utah. […] Test compounds can be dissolved in DMSO and diluted with three-fold serial dilutions. The compound in DMSO (1 μL) may be added per test well, and the inhibition relative to reactions containing no compound, with and without enzyme can be determined After assay incubation at RT, the reaction can be stopped and residual ATP can be determined by addition of an equal volume of a commercial ATP bioluminescence kit (Perkin Elmer EasyLite, Perkin Elmer, Waltham, Mass.) according to the manufacturer's instructions, and detected using an Analyst GT luminometer.
Description for PI3Kβ: as §1, §2, §3

Consider `CS(=O)(=O)Nc1cc(-c2ccc3ncccc3c2)cnc1Cl` [Example 12, N-(2-chloro-5-(6-quinolinyl)-3-pyridinyl)methanesulfonamide], for which the IC50 at PI3Kβ turned out to be 0.365 µM; at PI3Kα, 0.0689 µM; in experiment [1] it was 2.65 µM.
`Oc1cc(-c2ccc3nccc(N4CCOCC4)c3c2)cnc1Cl` [Example 19, 2-chloro-5-(4-(4-morpholinyl)-6-quinolinyl)-3-pyridinol]: the IC50 on PI3Kβ amounted to 0.644 µM; on PI3Kα, 0.0258 µM; in experiment [1] it was 0.311 µM.
As to `O=S(=O)(Nc1cc(-c2ccc3ncc(O)cc3c2)cnc1Cl)c1ccc(F)cc1` [Example 22, N-(2-chloro-5-(3-hydroxy-6-quinolinyl)-3-pyridinyl)-4-fluorobenzenesulfonamide], the IC50 on PI3Kβ is 0.0552 µM; at PI3Kα, 0.0114 µM; in experiment [1] it was 0.654 µM.
As for `O=S(=O)(Nc1cc(-c2ccc3nccc(N4CCC(O)C4)c3c2)cnc1Cl)c1ccc(F)cc1` (stereo not drawn) [Example 26, N-(2-chloro-5-(4-(3-hydroxy-1-pyrrolidinyl)-6-quinolinyl)-3-pyridinyl)-4-fluorobenzenesulfonamide], the IC50 stood at 0.0778 µM against PI3Kβ, 0.0111 µM at PI3Kα and 2.96 µM in experiment [1].
With `O=S(=O)(Nc1cc(-c2ccc3nccc(N4CCC(O)CC4)c3c2)cnc1Cl)c1ccc(F)cc1` [Example 27, N-(2-chloro-5-(4-(4-hydroxy-1-piperidinyl)-6-quinolinyl)-3-pyridinyl)-4-fluorobenzenesulfonamide], the IC50 against PI3Kβ is 0.0126 µM; at PI3Kα, 0.0041 µM; in experiment [1], 0.176 µM.
Taken in the same sequence, the figures for `CC(c1ccccc1)N1CCN(c2ccnc3ccc(-c4cnc(Cl)c(NS(=O)(=O)c5ccc(F)cc5)c4)cc23)CC1` (stereo not drawn) [Example 29, N-(2-chloro-5-(4-(4-(1-phenylethyl)-1-piperazinyl)-6-quinolinyl)-3-pyridinyl)-4-fluorobenzenesulfonamide] were 0.0449 µM, 0.0069 µM and 0.345 µM.
In the case of `CC1CN(c2ccnc3ccc(-c4cnc(Cl)c(NS(=O)(=O)c5ccc(F)cc5)c4)cc23)CC(C)O1` (stereo not drawn) [Example 30, N-(2-chloro-5-(4-(2,6-dimethyl-4-morpholinyl)-6-quinolinyl)-3-pyridinyl)-4-fluorobenzenesulfonamide], the IC50 at PI3Kβ amounted to 0.0302 µM; at PI3Kα, 0.0041 µM; in experiment [1] it was 0.0228 µM.
Taken in the same sequence, the figures for `O=S(=O)(Nc1cc(-c2ccc3nccc(N4CCOCC4)c3c2)cnc1Cl)c1ccccc1F` [Example 32, N-(2-chloro-5-(4-(4-morpholinyl)-6-quinolinyl)-3-pyridinyl)-2-fluorobenzenesulfonamide] were 0.0248 µM, 0.005 µM and 0.0117 µM.
The corresponding values for `O=S(=O)(Nc1cc(-c2ccc3nccc(N4CCOCC4)c3c2)cnc1Cl)c1ccccc1Cl` [Example 33, 2-chloro-N-(2-chloro-5-(4-(4-morpholinyl)-6-quinolinyl)-3-pyridinyl)benzenesulfonamide] are 0.0219 µM, 0.0041 µM and 0.0063 µM.
The corresponding values for `O=S(=O)(Nc1cc(-c2ccc3nccc(N4CCOCC4)c3c2)cnc1Cl)c1c(Cl)cccc1Cl` [Example 34, 2,6-dichloro-N-(2-chloro-5-(4-(4-morpholinyl)-6-quinolinyl)-3-pyridinyl)benzenesulfonamide] are 0.0359 µM, 0.0065 µM and 0.0376 µM.
`O=S(=O)(Nc1cc(-c2ccc3nccc(-c4ccccc4)c3c2)cnc1Cl)c1ccc(F)cc1` [Example 36, N-(2-chloro-5-(4-phenyl-6-quinolinyl)-3-pyridinyl)-4-fluorobenzenesulfonamide]: the IC50 against PI3Kβ came to 0.0149 µM; on PI3Kα it was 0.0071 µM; in experiment [1], 0.0914 µM.
On to `O=S(=O)(Nc1cc(-c2ccnc3cccnc23)cnc1Cl)c1ccc(F)cc1` [Example 42, N-(2-chloro-5-(1,5-naphthyridin-4-yl)-3-pyridinyl)-4-fluorobenzenesulfonamide], for which the IC50 is 0.62 µM against PI3Kβ, 0.0875 µM on PI3Kα and 1.73 µM in experiment [1].
Taken in the same sequence, the figures for `Nc1nc2ccc(-c3cnc(Cl)c(NS(=O)(=O)c4ccc(F)cc4)c3)cc2[nH]c1=O` [Example 43, N-(5-(2-amino-3-oxo-3,4-dihydro-6-quinoxalinyl)-2-chloro-3-pyridinyl)-4-fluorobenzenesulfonamide] were 0.0648 µM, 0.0169 µM and 5.04 µM.
Taken in the same sequence, the figures for `COc1ccc(S(=O)(=O)Nc2cc(-c3ccc4nc(NC(C)=O)ccc4c3)cnc2Cl)cc1` [Example 45, N-(6-(6-chloro-5-(((4-methoxyphenyl)sulfonyl)amino)-3-pyridinyl)-2-quinolinyl)acetamide] were 0.0597 µM, 0.0192 µM and 0.0646 µM.
Taken in the same sequence, the figures for `COc1ccc(S(=O)(=O)Nc2cc(-c3ccc4nc(N)ccc4c3)cnc2Cl)cc1` [Example 46, N-(5-(2-amino-6-quinolinyl)-2-chloro-3-pyridinyl)-4-methoxybenzenesulfonamide] were 0.18 µM, 0.136 µM and 0.108 µM.
Regarding `COc1ccc(S(=O)(=O)Nc2cc(-c3ccc4ncccc4c3)cnc2Cl)cc1` [Example 47, N-(2-chloro-5-(6-quinolinyl)-3-pyridinyl)-4-methoxybenzenesulfonamide], the IC50 worked out at 0.0249 µM against PI3Kβ, 0.0417 µM on PI3Kα and 0.526 µM in experiment [1].
Taken in the same sequence, the figures for `COc1ccc(S(=O)(=O)Nc2cc(-c3ccc4nccc(N(C)C)c4c3)cnc2Cl)cc1` [Example 49, N-(2-chloro-5-(4-(dimethylamino)-6-quinolinyl)-3-pyridinyl)-4-methoxybenzenesulfonamide] were 0.0151 µM, 0.0074 µM and 0.273 µM.
Taken in the same sequence, the figures for `COc1ccc(S(=O)(=O)Nc2cc(-c3ccc4nccc(N5CCC(OC)CC5)c4c3)cnc2Cl)cc1` [Example 50, N-(2-chloro-5-(4-(4-methoxy-1-piperidinyl)-6-quinolinyl)-3-pyridinyl)-4-methoxybenzenesulfonamide] were 0.0366 µM, 0.003 µM and 0.107 µM.
With `O=S(=O)(Nc1cc(-c2ccc3ncc(N4CCCCC4)nc3c2)cnc1Cl)c1ccc(F)cc1` [Example 54, N-(2-chloro-5-(3-(1-piperidinyl)-6-quinoxalinyl)-3-pyridinyl)-4-fluorobenzenesulfonamide], the results for the IC50 (against PI3Kβ; on PI3Kα; in experiment [1]) were 0.0842 µM, 0.0027 µM and 0.141 µM, respectively.
`CC(=O)N1CCN(c2cnc3ccc(-c4cnc(Cl)c(NS(=O)(=O)c5ccc(F)cc5)c4)cc3n2)CC1` [Example 56, N-(5-(3-(4-acetyl-1-piperazinyl)-6-quinoxalinyl)-2-chloro-3-pyridinyl)-4-fluorobenzenesulfonamide]: the IC50 was found to be 0.0318 µM against PI3Kβ, 0.0057 µM at PI3Kα and 0.0236 µM in experiment [1].
For `O=S(=O)(Nc1cc(-c2ccc3ncc(NCCOc4ccccc4)nc3c2)cnc1Cl)c1ccc(F)cc1` [Example 57, N-(2-chloro-5-(3-((2-phenoxyethyl)amino)-6-quinoxalinyl)-3-pyridinyl)-4-fluorobenzenesulfonamide], the IC50 is 0.0079 µM at PI3Kβ, 0.0022 µM on PI3Kα and 0.0451 µM in experiment [1].
